Columns and labels:
Serine protease 1 = Serine protease 1 (Rattus norvegicus, UniProt P00762); assay: Enzyme Assay: Inhibition constant of the compound against Trypsin
Prothrombin = Prothrombin (Rattus norvegicus, UniProt P18292); assay: Enzyme Assay: Inhibition constant of the compound against Thrombin
Plasminogen = Plasminogen (Rattus norvegicus, UniProt Q01177); assay: Enzyme Assay: Inhibition constant of the compound against Plasmin
Sequence of Plasminogen (Q01177 97-581 limits assumed): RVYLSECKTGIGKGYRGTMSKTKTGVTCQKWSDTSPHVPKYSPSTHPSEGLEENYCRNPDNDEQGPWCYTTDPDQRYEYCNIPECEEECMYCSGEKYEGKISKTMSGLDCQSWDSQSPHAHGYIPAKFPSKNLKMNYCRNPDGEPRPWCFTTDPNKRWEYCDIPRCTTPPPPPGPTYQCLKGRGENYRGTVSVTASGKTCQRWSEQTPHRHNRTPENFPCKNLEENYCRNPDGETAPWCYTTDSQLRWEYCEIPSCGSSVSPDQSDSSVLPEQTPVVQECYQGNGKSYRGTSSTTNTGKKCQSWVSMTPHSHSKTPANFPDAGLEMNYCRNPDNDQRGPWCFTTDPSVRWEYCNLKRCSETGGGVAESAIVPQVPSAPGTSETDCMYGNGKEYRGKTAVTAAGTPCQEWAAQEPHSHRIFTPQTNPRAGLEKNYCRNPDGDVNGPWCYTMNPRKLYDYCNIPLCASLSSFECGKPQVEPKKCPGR
Sequence of Plasminogen (Q01177 582-812 limits assumed): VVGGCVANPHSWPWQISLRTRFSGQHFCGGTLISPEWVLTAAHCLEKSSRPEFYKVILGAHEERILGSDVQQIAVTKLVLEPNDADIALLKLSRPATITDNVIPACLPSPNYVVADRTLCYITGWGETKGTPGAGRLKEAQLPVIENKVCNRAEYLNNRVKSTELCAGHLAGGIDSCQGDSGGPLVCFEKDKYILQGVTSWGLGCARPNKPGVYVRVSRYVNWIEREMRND

Sequence of Serine protease 1 (P00762 whole entry): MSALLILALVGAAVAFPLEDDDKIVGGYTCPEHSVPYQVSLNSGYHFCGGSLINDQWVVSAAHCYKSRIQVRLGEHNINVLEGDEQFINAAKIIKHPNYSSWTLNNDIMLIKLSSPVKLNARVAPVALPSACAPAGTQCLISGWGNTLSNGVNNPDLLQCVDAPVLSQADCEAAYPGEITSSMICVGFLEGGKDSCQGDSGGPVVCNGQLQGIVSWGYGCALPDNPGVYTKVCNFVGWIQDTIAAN

Row | SMILES | Ki (Serine protease 1) [µM] | Ki (Prothrombin) [µM] | Ki (Plasminogen) [µM]
1 | N=C(N)c1ccc(CNC(=O)CNC(=O)[C@@H](CO)NS(=O)(=O)Cc2cccc(C(=O)O)c2)cc1 | 0.72 | – | –
2 | N=C(N)c1ccc(CNC(=O)CNC(=O)[C@@H](CO)NS(=O)(=O)Cc2ccc(CN)cc2)cc1 | 0.28 | – | –
3 | N=C(N)c1ccc(CNC(=O)CNC(=O)[C@@H](CO)NS(=O)(=O)Cc2ccncc2)cc1 | 0.41 | 1.6 | 37
4 | N=C(N)c1ccc(CNC(=O)[C@H](CCCCN)NC(=O)[C@@H](CO)NS(=O)(=O)Cc2ccccc2)cc1 | 0.0068 | – | –
5 | N=C(N)c1ccc(CNC(=O)[C@H](CCCN=C(N)N)NC(=O)[C@@H](CO)NS(=O)(=O)Cc2ccccc2)cc1 | 0.007 | – | –
